Columns and labels:
[1] = system: palmer amaranth, waterhemp, kochia, common ragweed and marestail; experiment: Example 1 pot test, spray two days after sowing: herbicidal effect on weeds; assay type: in vivo; conditions: 25 or 50 g per hectare; applied two days after sowing; 21 days after the treatment
Text: (§1) The evaluation of the herbicidal effect and crop injury is classified into 0 to 100, where the numeral “0” indicates no or little difference in the state of germination or growth of weeds or soybean under test at the time of examination as comparison with untreated weeds or soybean, respectively and the numeral “100” indicates the complete death of weeds or soybean under test or the complete inhibition of their germination or growth of weeds or soybean under test.
(§2) A pot is filled with a soil, and the determinate soybean, indeterminate soybean, semi-determinate soybean, palmer amaranth, waterhemp, kochia, common ragweed and marestail are sown thereto. Two days later, trifludimoxazin spray liquid (prepared by diluting trifludimoxazin formulation an aqueous suspension concentrate containing 500 g/L of trifludimoxazin) with water) is uniformly applied onto the pot using a sprayer at the amount of 200 L per hectare so that the application rate of trifludimoxazin may be 25 or 50 g per hectare. 21 days after the treatment, herbicidal effects and injuries on various soybeans are investigated.

large crabgrass = experiment: Example 3 pot test, pre-emergence soil spray: herbicidal effect on large crabgrass; assay type: in vivo, Digitaria sanguinalis; conditions: 25 and 50 g per hectare, 18 days after treatment, 100 = complete death
Text: as §1
(§3) Four varieties of determinate soybean, four varieties of indeterminate soybean, Palmer amaranth, kochia and large crabgrass were sown to a pot filled with a soil. On the next day, a trifludimoxazin spray liquid. (prepared by diluting an emuslfiable concentrate of trifludimoxazin with water) was uniformly sprayed onto the pot at the amount of 200 L, per hectare so that the application rate of trifludimoxazin might be 25 and 50 g per hectare. 18 days after treatment, herbicidal effects on weeds and injury on soybeans were investigated. As a result, the herbicidal effect on each of the three weeds was 100.

[2] = system: Toyomusume/Determinate soybean; experiment: Example 3 pot test, pre-emergence soil spray: crop injury on soybean variety Toyomusume; assay type: in vivo, Glycine max; conditions: 18 days after treatment
Text: as §1, §3

Palmer amaranth = experiment: Example 3 pot test, pre-emergence soil spray: herbicidal effect on Palmer amaranth; assay type: in vivo, Amaranthus palmeri; conditions: 25 and 50 g per hectare, 18 days after treatment, 100 = complete death
Text: as §1, §3

[3] = system: Kurosengoku/Indeterminate soybean; experiment: Example 3 pot test, pre-emergence soil spray: crop injury on soybean variety Kurosengoku; assay type: in vivo, Glycine max; conditions: 18 days after treatment
Text: as §1, §3

[4] = system: determinate soybean, indeterminate soybean, and semi-determinate soybean; experiment: Example 2 pot test, spray one day before soybean sowing: injury on soybeans; assay type: in vivo, Glycine max; conditions: 25 or 50 g per hectare; applied one day before sowing soybeans; 21 days after sowing soybeans
Text: as §1
(§4) A pot is filled with a soil, and then Palmer amaranth, waterhemp, kochia, common ragweed and marestail are sown thereto. On the same day, trifludimoxazin spray liquid (prepared by diluting trifludimoxazin formulation (an aqueous suspension concentrate containing 500 g/L of trifludimoxazin) with water) is uniformly applied onto the pot using a sprayer at the amount of 200 L per hectare so that the application rate of trifludimoxazin may be 25 or 50 g per hectare. On the next day, determinate soybean, indeterminate soybean, and semi-determinate soybean are sown. 21 days after sowing soybeans, herbicidal effects and injuries on various soybeans are investigated.

[5] = system: Wild soybean/Indeterminate; experiment: Example 3 pot test, pre-emergence soil spray: crop injury on wild soybean; assay type: in vivo, Glycine soja; conditions: 18 days after treatment
Text: as §1, §3

[6] = system: Harosoy/Indeterminate soybean; experiment: Example 3 pot test, pre-emergence soil spray: crop injury on soybean variety Harosoy; assay type: in vivo, Glycine max; conditions: 18 days after treatment
Text: as §1, §3

[7] = system: Tambaguro/Determinate soybean; experiment: Example 3 pot test, pre-emergence soil spray: crop injury on soybean variety Tambaguro; assay type: in vivo, Glycine max; conditions: 18 days after treatment, 0 = no or little difference from untreated, 100 = complete death
Text: as §1, §3

[8] = system: determinate soybean, indeterminate soybean, semi-determinate soybean; experiment: Example 1 pot test, spray two days after sowing: injury on soybeans; assay type: in vivo, Glycine max; conditions: 25 or 50 g per hectare; applied two days after sowing; 21 days after the treatment
Text: as §1, §2

kochia = experiment: Example 3 pot test, pre-emergence soil spray: herbicidal effect on kochia; assay type: in vivo, Kochia scoparia; conditions: 25 and 50 g per hectare, 18 days after treatment, 100 = complete death
Text: as §1, §3

[9] = system: palmer amaranth, waterhemp, kochia, common ragweed and marestail; experiment: Example 2 pot test, spray on day of weed sowing, before soybean sowing: herbicidal effect on weeds; assay type: in vivo; conditions: 25 or 50 g per hectare; applied on day of weed sowing; 21 days after sowing soybeans
Text: as §1, §4

[10] = system: Williams 82/Indeterminate soybean; experiment: Example 3 pot test, pre-emergence soil spray: crop injury on soybean variety Williams 82; assay type: in vivo, Glycine max; conditions: 18 days after treatment
Text: as §1, §3

[11] = system: Fukunari/Determinate soybean; experiment: Example 3 pot test, pre-emergence soil spray: crop injury on soybean variety Fukunari; assay type: in vivo, Glycine max; conditions: 18 days after treatment
Text: as §1, §3

[12] = system: Sachiyutaka/Determinate soybean; experiment: Example 3 pot test, pre-emergence soil spray: crop injury on soybean variety Sachiyutaka; assay type: in vivo, Glycine max; conditions: 18 days after treatment
Text: as §1, §3

C#CCN1C(=O)C(F)(F)Oc2cc(F)c(-n3c(=O)n(C)c(=S)n(C)c3=O)cc21 [trifludimoxazin]
herbicidal effects on weeds [1]: High herbicidal effects on all weeds
herbicidal effect (0 to 100 scale) (large crabgrass): 100
injury on soybeans (0 to 100 scale) ([2]; 25 g/hectare): 0
injury on soybeans (0 to 100 scale) ([2]; 50 g/hectare): 5
herbicidal effect (0 to 100 scale) (Palmer amaranth): 100
injury on soybeans (0 to 100 scale) ([3]; 25 g/hectare): 30
injury on soybeans (0 to 100 scale) ([3]; 50 g/hectare): 60
injuries on various soybeans (comparison of growth habits) [4]: injury on determinate soybean is less than those on indeterminate soybean and semi-determinate soybean
injury on soybeans (0 to 100 scale) ([5]; 25 g/hectare): 100
injury on soybeans (0 to 100 scale) ([5]; 50 g/hectare): 100
injury on soybeans (0 to 100 scale) ([6]; 25 g/hectare): 30
injury on soybeans (0 to 100 scale) ([6]; 50 g/hectare): 50
injury on soybeans (0 to 100 scale) ([7]; 25 g/hectare): 0
injury on soybeans (0 to 100 scale) ([7]; 50 g/hectare): 10
injuries on various soybeans (comparison of growth habits) [8]: injury on determinate soybean is less than those on indeterminate soybean and semi-determinate soybean
herbicidal effect (0 to 100 scale) (kochia): 100
herbicidal effects on weeds [9]: High effects on all weeds
injury on soybeans (0 to 100 scale) ([10]; 25 g/hectare): 40
injury on soybeans (0 to 100 scale) ([10]; 50 g/hectare): 80
injury on soybeans (0 to 100 scale) ([11]; 25 g/hectare): 0
injury on soybeans (0 to 100 scale) ([11]; 50 g/hectare): 0
injury on soybeans (0 to 100 scale) ([12]; 25 g/hectare): 0
injury on soybeans (0 to 100 scale) ([12]; 50 g/hectare): 0

— patent publication US20220095619A1, “METHOD OF CONTROLLING WEEDS IN A CULTIVATION AREA OF DETERMINATE SOYBEAN” (SUMITOMO CHEMICAL COMPANY, LIMITED, priority 2019, published 2022)
